Laboratory results taken from patent publication US10111890B2, “9-aminomethyl minocycline compounds and uses thereof” (Paratek Pharmaceuticals, Inc., priority 2016, dated 2018).
Like-named read-outs stand apart in the source and are kept apart here.

Legend:
[1] = Phase 1 food-effect crossover study: plasma PK after single 300 mg oral dose; assay type: in vivo, human; conditions: for AUC(0-inf) / AUC(0-t) / Cmax / Tmax: plasma, po, 300 mg
Description: These meals were to be consumed within 20 minutes. Dose administration for Treatments B, C, and D was based off of the end time of the meal. […] Geometric means were determined for AUC and Cmax. PK parameters were evaluated using non-compartmental analysis using Phoenix® WinNonlin® (Pharsight Corp, St. Louis, Mo.), Version 6.2.1. Confidence intervals (CI) for test treatments (fed states: Treatments B, C, and D) compared with the reference treatment (fasted state: Treatment A) were constructed for AUC0-24, AUC0-t, AUC0-inf, and Cmax.

[2] = Phase 1 multiple oral dose study: safety and tolerability (TEAEs, serum chemistry)
[3] = 600 mg (n = 24), listed as omadacycline
[4] = 300, 450, 600 mg once daily x 5 days

In the case of `CN(C)c1cc(CNCC(C)(C)C)c(O)c2c1C[C@H]1C[C@H]3[C@H](N(C)C)C(O)=C(C(N)=O)C(=O)[C@@]3(O)C(O)=C1C2=O` [Omadacycline, 9-[(2,2-dimethyl-propylamino)-methyl]-minocycline], the “AUC0-24, Mean (Coefficient of Variation)” value ([1]; Treatment A: fasted overnight) is reported as 7.2 (28.1) mcg * h/mL, the “AUC0-t, Mean (Coefficient of Variation)” value ([1]; Treatment A: fasted overnight) is reported as 7.2 (28.1) mcg * h/mL and the half-life ([1]; human, in vivo, across all treatment periods, read-out: mean T1/2) is reported as 13.5 to 13.8 h. The AUC(0-inf) ([1]; human, Treatment A: fasted overnight (N = 30), read-out: AUC0-inf, Geometric LS Mean) was 10600 ng·h/mL, the AUC(0-t) ([1]; human, Treatment A: fasted overnight, read-out: AUC0-24, Geometric LS Mean) was 7400 ng·h/mL and the AUC(0-t) ([1]; human, Treatment A: fasted overnight, read-out: AUC0-24, Mean (Coefficient of Variation)) was 7200 ng·h/mL. The AUC(0-inf) ([1]; human, Treatment A: fasted overnight, read-out: AUC0-inf, Mean (Coefficient of Variation)) was 10200 ng·h/mL, the AUC(0-t) ([1]; human, Treatment A: fasted overnight, read-out: AUC0-t, Geometric LS Mean) was 7400 ng·h/mL and the AUC(0-t) ([1]; human, Treatment A: fasted overnight, read-out: AUC0-t, Mean (Coefficient of Variation)) was 7200 ng·h/mL. The Cmax ([1]; human, Treatment A: fasted overnight, read-out: Cmax, Geometric LS Mean) was 660 ng/mL, the Cmax ([1]; human, Treatment A: fasted overnight, read-out: Cmax, Mean (Coefficient of Variation)) was 600 ng/mL and the Tmax ([1]; human, Treatment A: fasted overnight, read-out: Tmax) was 2.5 h. The AUC(0-t) ([1]; human, Treatment B: high-fat nondairy meal 4 h before dosing, read-out: AUC0-24, Geometric LS Mean) was 6200 ng·h/mL, the AUC(0-t) ([1]; human, Treatment B: high-fat nondairy meal 4 h before dosing, read-out: AUC0-24, Mean (Coefficient of Variation)) was 6100 ng·h/mL and the AUC(0-inf) ([1]; human, Treatment B: high-fat nondairy meal 4 h before dosing, read-out: AUC0-inf, Geometric LS Mean) was 9000 ng·h/mL. For the same molecule, the AUC(0-inf) ([1]; human, Treatment B: high-fat nondairy meal 4 h before dosing, read-out: AUC0-inf, Mean (Coefficient of Variation)) was 8800 ng·h/mL, the AUC(0-t) ([1]; human, Treatment B: high-fat nondairy meal 4 h before dosing, read-out: AUC0-t, Geometric LS Mean) was 6200 ng·h/mL and the AUC(0-t) ([1]; human, Treatment B: high-fat nondairy meal 4 h before dosing, read-out: AUC0-t, Mean (Coefficient of Variation)) was 6100 ng·h/mL. The Cmax ([1]; human, Treatment B: high-fat nondairy meal 4 h before dosing, read-out: Cmax, Geometric LS Mean) was 560 ng/mL, the Cmax ([1]; human, Treatment B: high-fat nondairy meal 4 h before dosing, read-out: Cmax, Mean (Coefficient of Variation)) was 600 ng/mL and the Tmax ([1]; human, Treatment B: high-fat nondairy meal 4 h before dosing, read-out: Tmax) was 2.9 h. It also gave an AUC(0-t) ([1]; human, Treatment C: high-fat nondairy meal 2 h before dosing, read-out: AUC0-24, Geometric LS Mean) of 4300 ng·h/mL, an AUC(0-t) ([1]; human, Treatment C: high-fat nondairy meal 2 h before dosing, read-out: AUC0-24, Mean (Coefficient of Variation)) of 4200 ng·h/mL and an AUC(0-inf) ([1]; human, Treatment C: high-fat nondairy meal 2 h before dosing, read-out: AUC0-inf, Geometric LS Mean) of 6200 ng·h/mL. It also gave an AUC(0-inf) ([1]; human, Treatment C: high-fat nondairy meal 2 h before dosing, read-out: AUC0-inf, Mean (Coefficient of Variation)) of 6000 ng·h/mL, an AUC(0-t) ([1]; human, Treatment C: high-fat nondairy meal 2 h before dosing, read-out: AUC0-t, Geometric LS Mean) of 4300 ng·h/mL and an AUC(0-t) ([1]; human, Treatment C: high-fat nondairy meal 2 h before dosing, read-out: AUC0-t, Mean (Coefficient of Variation)) of 4200 ng·h/mL. It also gave a Cmax ([1]; human, Treatment C: high-fat nondairy meal 2 h before dosing, read-out: Cmax, Geometric LS Mean) of 390 ng/mL, a Cmax ([1]; human, Treatment C: high-fat nondairy meal 2 h before dosing, read-out: Cmax, Mean (Coefficient of Variation)) of 400 ng/mL and a Tmax ([1]; human, Treatment C: high-fat nondairy meal 2 h before dosing, read-out: Tmax) of 2.9 h. For the same molecule, the AUC(0-t) ([1]; human, Treatment D: high-fat meal incl. dairy 2 h before dosing, read-out: AUC0-24, Geometric LS Mean) was 2800 ng·h/mL, the AUC(0-t) ([1]; human, Treatment D: high-fat meal incl. dairy 2 h before dosing, read-out: AUC0-24, Mean (Coefficient of Variation)) was 2800 ng·h/mL and the AUC(0-inf) ([1]; human, Treatment D: high-fat meal incl. dairy 2 h before dosing, read-out: AUC0-inf, Geometric LS Mean) was 4000 ng·h/mL. For the same molecule, the AUC(0-inf) ([1]; human, Treatment D: high-fat meal incl. dairy 2 h before dosing, read-out: AUC0-inf, Mean (Coefficient of Variation)) was 4000 ng·h/mL, the AUC(0-t) ([1]; human, Treatment D: high-fat meal incl. dairy 2 h before dosing, read-out: AUC0-t, Geometric LS Mean) was 2800 ng·h/mL and the AUC(0-t) ([1]; human, Treatment D: high-fat meal incl. dairy 2 h before dosing, read-out: AUC0-t, Mean (Coefficient of Variation)) was 2800 ng·h/mL. The Cmax ([1]; human, Treatment D: high-fat meal incl. dairy 2 h before dosing, read-out: Cmax, Geometric LS Mean) was 270 ng/mL, the Cmax ([1]; human, Treatment D: high-fat meal incl. dairy 2 h before dosing, read-out: Cmax, Mean (Coefficient of Variation)) was 300 ng/mL and the Tmax ([1]; human, Treatment D: high-fat meal incl. dairy 2 h before dosing, read-out: Tmax) was 2.9 h. The Tmax ([1]; human, across all treatment periods, read-out: median Tmax) was 2.5 to 2.9 h, the “Any TEAE, % of subjects” value ([2]; 300 mg (n = 26)) was “(19.2) %” and the “Any TEAE, n of subjects” value ([2]; 300 mg (n = 26)) was 5 n. The “Most frequent TEAEs: Dizziness, %” value ([2]; 300 mg (n = 26)) was “(7.7) %”, the “Most frequent TEAEs: Nausea, %” value ([2]; 300 mg (n = 26)) was “(7.7) %” and the “Most frequent TEAEs: Vomiting, %” value ([2]; 300 mg (n = 26)) was “(7.7) %”. The “TEAEs leading to early discontinuation of study drug: All, %” value (from here on “TEAEs leading … All, %”) ([2]; 300 mg (n = 26)) was “(3.8) %”, the “TEAEs leading to early discontinuation of study drug: Nausea, %” value ([2]; 300 mg (n = 26)) was “(3.8) %” and the “TEAEs leading to early discontinuation of study drug: Vomiting, %” value ([2]; 300 mg (n = 26)) was “(3.8) %”. For the same molecule, the “Treatment-related TEAE, % of subjects” value ([2]; 300 mg (n = 26)) was “(15.4) %”, the “Treatment-related TEAE, n of subjects” value ([2]; 300 mg (n = 26)) was 4 n and the “Treatment-related TEAE, % of subjects” value ([2]; 300 mg (n = 26), listed as omadacycline) was 15.4%. The “median change in alanine aminotransferase (ALT) concentration between baseline and Day 5” value (“median change” below) ([2]; 300 mg omadacycline) was −2.0 IU/L, the “Any TEAE, % of subjects” value ([2]; 450 mg (n = 24)) was “(12.5) %” and the “Any TEAE, n of subjects” value ([2]; 450 mg (n = 24)) was 3 n. For the same molecule, the “Most frequent TEAEs: ALT increased, %” value ([2]; 450 mg (n = 24)) was “(4.2) %”, the “Most frequent TEAEs: Nausea, %” value ([2]; 450 mg (n = 24)) was “(4.2) %” and the “TEAEs leading to early discontinuation of study drug: ALT increased, %” value ([2]; 450 mg (n = 24)) was “(4.2) %”. The “TEAEs leading … All, %” value ([2]; 450 mg (n = 24)) was “(4.2) %”, the “Treatment-related TEAE, % of subjects” value ([2]; 450 mg (n = 24)) was “(8.3) %” and the “Treatment-related TEAE, n of subjects” value ([2]; 450 mg (n = 24)) was 2 n. The “Treatment-related TEAE, % of subjects” value ([2]; 450 mg (n = 24), listed as omadacycline) was 8.3%, the “median change” value ([2]; 450 mg omadacycline) was 5.0 IU/L and the “Any TEAE, % of subjects” value ([2]; 600 mg (n = 24)) was “(25.0) %”. For the same molecule, the “Any TEAE, n of subjects” value ([2]; 600 mg (n = 24)) was 6 n, the “Most frequent TEAEs: ALT increased, %” value ([2]; 600 mg (n = 24)) was “(4.2) %” and the “Most frequent TEAEs: Diarrhea, %” value ([2]; 600 mg (n = 24)) was “(8.3) %”. For the same molecule, the “Most frequent TEAEs: Dizziness, %” value ([2]; 600 mg (n = 24)) was “(4.2) %”, the “Most frequent TEAEs: Nausea, %” value ([2]; 600 mg (n = 24)) was “(16.7) %” and the “Most frequent TEAEs: Vomiting, %” value ([2]; 600 mg (n = 24)) was “(4.2) %”. For the same molecule, the “TEAEs leading … All, %” value ([2]; 600 mg (n = 24)) was “(4.2) %”, the “TEAEs leading to early discontinuation of study drug: Lipase increased, %” value ([2]; 600 mg (n = 24)) was “(4.2) %” and the “Treatment-related TEAE, % of subjects” value ([2]; 600 mg (n = 24)) was “(25.0) %”. The “Treatment-related TEAE, n of subjects” value ([2]; 600 mg (n = 24)) was 6 n, the “Most frequent TEAEs: Nausea, %” value [2, 3] was 16.7% and the “Treatment-related TEAE, % of subjects” value [2, 3] was 25.0%. For the same molecule, the “median change” value ([2]; 600 mg omadacycline) was 19.5 IU/L, the “serious TEAEs (SAEs)” value [2, 4] was “no serious TEAEs (SAEs) reported” and the “severity of TEAEs” value [2, 4] was “either mild or moderate in severity”. The “Any TEAE, % of subjects” value ([2]; Omadacycline Overall (n = 26)) was “(38.5) %”, the “Any TEAE, n of subjects” value ([2]; Omadacycline Overall (n = 26)) was 10 n and the “Most frequent TEAEs: ALT increased, %” value ([2]; Omadacycline Overall (n = 26)) was “(7.7) %”. The “Most frequent TEAEs: Diarrhea, %” value ([2]; Omadacycline Overall (n = 26)) was “(7.7) %”, the “Most frequent TEAEs: Dizziness, %” value ([2]; Omadacycline Overall (n = 26)) was “(11.5) %” and the “Most frequent TEAEs: Nausea, %” value ([2]; Omadacycline Overall (n = 26)) was “(23.1) %”. The “Most frequent TEAEs: Vomiting, %” value ([2]; Omadacycline Overall (n = 26)) was “(11.5) %”, the “TEAEs leading to early discontinuation of study drug: ALT increased, %” value ([2]; Omadacycline Overall (n = 26)) was “(3.8) %” and the “TEAEs leading … All, %” value ([2]; Omadacycline Overall (n = 26)) was “(11.5) %”. For the same molecule, the “TEAEs leading to early discontinuation of study drug: Lipase increased, %” value ([2]; Omadacycline Overall (n = 26)) was “(3.8) %”, the “TEAEs leading to early discontinuation of study drug: Nausea, %” value ([2]; Omadacycline Overall (n = 26)) was “(3.8) %” and the “TEAEs leading to early discontinuation of study drug: Vomiting, %” value ([2]; Omadacycline Overall (n = 26)) was “(3.8) %”. For the same molecule, the “Treatment-related TEAE, % of subjects” value ([2]; Omadacycline Overall (n = 26)) was “(34.6) %”, the “Treatment-related TEAE, n of subjects” value ([2]; Omadacycline Overall (n = 26)) was 9 n and the “Any TEAE, % of subjects” value ([2]; Omadacycline Overall (n = 26), listed as omadacycline) was 38.5%. For the same molecule, the “nausea, % of subjects” value ([2]; omadacycline 300 and 450 mg dose groups) was ≤ 7.7% and the “highest individual ALT value” ([2]; subject who received 450 mg in Period 1 then 300 mg in Period 2) was 150 IU/L.
